Experimental data reported in the OligoGym collection.
“And” between values parts separate entries of the source, which are not always exact repeats. Equal values may be shown once. After the bases stand the sugars from the 5' end (letter, count) and the backbone: PS all phosphorothioate, else s phosphorothioate and o phosphodiester by linkage. Methylation of C is not given here. e = 2'-O-(2-methoxyethyl) (MOE); k = constrained ethyl (cEt); d = 2'-deoxy (DNA); m = 2'-O-methyl

Molecular target: HSD17B13
Settings: ASO, HepaRG

Sequence | target mRNA inhibition (1 µM) | other results
CACCGTTTTGGGCTAA (sugars k3 d10 k3, PS) | 85% | target mRNA inhibition (0.02 µM): 13%; target mRNA inhibition (0.078 µM): 23%; target mRNA inhibition (0.313 µM): 53%; target mRNA inhibition (1.25 µM): 83%; target mRNA inhibition (5 µM): 94%
CACTAATTTAGTCAAC (sugars k3 d10 k3, PS) | 7% | –
CACTGATACATACCAC (sugars k3 d10 k3, PS) | 64% | –
CACTTTGGTATTGTTG (sugars k3 d10 k3, PS) | 53% | –
CACTTTTGGTGGACTT (sugars k3 d10 k3, PS) | 21% | –
CAGAAGTTTTTAAGAG (sugars k3 d10 k3, PS) | 30% | –
CAGAGACATGAGGTTT (sugars k3 d10 k3, PS) | 61% | –
CAGAGTTATTGTAGGG (sugars k3 d10 k3, PS) | 83% | target mRNA inhibition (0.02 µM): 16%; target mRNA inhibition (0.078 µM): 24%; target mRNA inhibition (0.313 µM): 51%; target mRNA inhibition (1.25 µM): 74%; target mRNA inhibition (5 µM): 93%
CAGATTGGAATGCTAC (sugars k3 d9 k3 e1, PS) | 61% | –
CAGATTGGAATGCTAC (sugars k3 d10 k3, PS) | 74% | target mRNA inhibition (0.02 µM): 7%; target mRNA inhibition (0.078 µM): 12%; target mRNA inhibition (0.313 µM): 36%; target mRNA inhibition (1.25 µM): 73%; target mRNA inhibition (5 µM): 94%
CAGAUTATTATGTGAT (sugars k3 d1 m1 d8 k3, PS) | 32% | –
CAGCATCAAGACATTC (sugars k3 d10 k3, PS) | 72% and 70% | –
CAGCATCAAGACATTC (sugars kkdddddddddkekek, PS) | 62% | –
CAGCATTGTAATCTTG (sugars k3 d10 k3, PS) | 43% | –
CAGCCTTAGAGTGAAT (sugars k3 d10 k3, PS) | 82% | target mRNA inhibition (0.02 µM): 6%; target mRNA inhibition (0.078 µM): 23%; target mRNA inhibition (0.313 µM): 36%; target mRNA inhibition (1.25 µM): 73%; target mRNA inhibition (5 µM): 83%
CAGGGTGGTAACGGTG (sugars k3 d9 k3 e1, PS) | 39% | –
CAGGGTGGTAACGGTG (sugars kkdddddddddkekek, PS) | 49% | –
CAGGTTGAGATAAAGC (sugars kkdddddddddkekek, PS) | 53% | –
CAGTCTTAAACCTTCC (sugars k3 d1 m1 d8 k3, PS) | 59% | –
CAGTCTTAAACCTTCC (sugars k3 d9 k3 e1, PS) | 74% and 50% | target mRNA inhibition (0.02 µM): 0%; target mRNA inhibition (0.078 µM): 0%; target mRNA inhibition (0.313 µM): 47%; target mRNA inhibition (1.25 µM): 43%; target mRNA inhibition (5 µM): 79%
CAGTTTTCCTCATGAT (sugars k3 d10 k3, PS) | 65% | –
CATAACTTCATAGTGG (sugars k3 d1 m1 d8 k3, PS) | 38% | –
CATAAGAGCCAAACTG (sugars k3 d10 k3, PS) | 27% | –

Sequence | target mRNA inhibition (1 µM) | other results
CATAATAATAGCTCTA (sugars kkdddddddddkekek, PS) | 13% | –
CATAATCTTGTGCTTG (sugars k3 d10 k3, PS) | 37% | –
CATACCACATACCCAT (sugars k3 d10 k3, PS) | 0% | –
CATAGAACTAGAACTC (sugars k3 d10 k3, PS) | 19% | –
CATAGTTCAAATTGGA (sugars k3 d10 k3, PS) | 39% | –
CATAGTTTATATGGAT (sugars k3 d10 k3, PS) | 56% | –
CATATCAATGCCTTAG (sugars k3 d10 k3, PS) | 29% | –
CATATCTTACTCTGTG (sugars k3 d10 k3, PS) | 47% | –
CATATGTGAAGAGCTG (sugars kkdddddddddkekek, PS) | 35% | –
CATCAAGCCCTTTTCA (sugars k3 d10 k3, PS) | 23% | –
CATCTTAAGATACCCA (sugars k3 d9 k3 e1, PS) | 76% | target mRNA inhibition (0.02 µM): 0%; target mRNA inhibition (0.078 µM): 23%; target mRNA inhibition (0.313 µM): 38%; target mRNA inhibition (1.25 µM): 64%; target mRNA inhibition (5 µM): 79%
CATCTTAAGATACCCA (sugars k3 d10 k3, PS) | 76% | target mRNA inhibition (0.02 µM): 0%; target mRNA inhibition (0.078 µM): 23%; target mRNA inhibition (0.313 µM): 46%; target mRNA inhibition (1.25 µM): 75%; target mRNA inhibition (5 µM): 90%
CATCUTAAGATACCCA (sugars k3 d1 m1 d8 k3, PS) | 56% | –
CATGATTAAGCAGAAT (sugars k3 d10 k3, PS) | 42% | –
CATTACATATCAATGC (sugars k3 d10 k3, PS) | 29% | –
CATTAGCAAGCTAAGA (sugars k3 d10 k3, PS) | 0% | –
CATTATCCTTACTCCC (sugars k3 d10 k3, PS) | 16% | –
CATTTGAAGTCTATAC (sugars k3 d10 k3, PS) | 21% | –
CATTTTTAATACGACT (sugars k3 d10 k3, PS) | 57% | –
CCAAACATGGATGTTA (sugars k3 d10 k3, PS) | 43% | –
CCAAAGATGAGAGTCT (sugars k3 d10 k3, PS) | 19% | –
CCAACCAAACTTCCAG (sugars k3 d9 k3 e1, PS) | 47% | –
CCAACCAAACTTCCAG (sugars k3 d10 k3, PS) | 70% | –

Sequence | target mRNA inhibition (1 µM) | other results
CCAACCCAAGCTACCT (sugars k3 d10 k3, PS) | 15% | –
CCAAGTAATTACTTCT (sugars k3 d10 k3, PS) | 68% | –
CCACACTAATGAATCA (sugars k3 d10 k3, PS) | 43% | –
CCACATACGCATGCGC (sugars k3 d10 k3, PS) | 68% | target mRNA inhibition (0.02 µM): 3%; target mRNA inhibition (0.078 µM): 1%; target mRNA inhibition (0.313 µM): 43%; target mRNA inhibition (1.25 µM): 63%; target mRNA inhibition (5 µM): 88%
CCACGATTGTTACATC (sugars k3 d10 k3, PS) | 42% | –
CCACTGGATGGATTTC (sugars k3 d10 k3, PS) | 68% | –
CCAGAATAGAGTTGCA (sugars k3 d10 k3, PS) | 62% | –
CCAGGTTGAGATAAAG (sugars k3 d9 k3 e1, PS) | 51% | –
CCAGGTTGAGATAAAG (sugars kkdddddddddkekek, PS) | 55% | –
CCAGTACAGTTCCTTT (sugars k3 d10 k3, PS) | 66% | target mRNA inhibition (0.02 µM): 38%; target mRNA inhibition (0.078 µM): 37%; target mRNA inhibition (0.313 µM): 53%; target mRNA inhibition (1.25 µM): 75%; target mRNA inhibition (5 µM): 89%
CCAGTAGGTGTGTTTC (sugars k3 d10 k3, PS) | 55% | –
CCAGUACAGTTCCTTT (sugars k3 d1 m1 d8 k3, PS) | 51% | –
CCATAATCTTGTGCTT (sugars k3 d10 k3, PS) | 32% | –
CCATAGGACATGGAGA (sugars k3 d10 k3, PS) | 68% | target mRNA inhibition (0.02 µM): 7%; target mRNA inhibition (0.078 µM): 12%; target mRNA inhibition (0.313 µM): 31%; target mRNA inhibition (1.25 µM): 76%; target mRNA inhibition (5 µM): 90%
CCATCATCGATGGAAG (sugars k3 d10 k3, PS) | 8% | –
CCATCTATCAGACTTC (sugars k3 d1 m1 d8 k3, PS) | 56% | –
CCCCAAACATGGATGT (sugars k3 d10 k3, PS) | 62% | –
CCCCTAAGTTATTATC (sugars k3 d10 k3, PS) | 33% | –
CCCTAGATTCTACACT (sugars k3 d10 k3, PS) | 22% | –
CCGAATTATTTCTTGC (sugars k3 d10 k3, PS) | 60% | –
CCGCCCTTAAGTCATT (sugars k3 d10 k3, PS) | 53% | –
CCGTTTTGGGCTAATG (sugars k3 d10 k3, PS) | 58% | –
CCGTTTTGGGCTAATG (sugars kkdddddddddkekek, PS) | 72% | target mRNA inhibition (0.02 µM): 0%; target mRNA inhibition (0.078 µM): 4%; target mRNA inhibition (0.313 µM): 36%; target mRNA inhibition (1.25 µM): 52%; target mRNA inhibition (5 µM): 78%

Sequence | target mRNA inhibition (1 µM) | other results
CCTAAAGGAGATCTGA (sugars k3 d10 k3, PS) | 48% | –
CCTAGTTACAAACCAC (sugars k3 d10 k3, PS) | 51% | –
CCTATATACATCCAAG (sugars kkdddddddddkekek, PS) | 61% | –
CCTAUATACATCCAAG (sugars k3 d1 m1 d8 k3, PS) | 39% | –
CCTCGATCCTATATAC (sugars k3 d9 k3 e1, PS) | 11% | –
CCTCGATCCTATATAC (sugars k3 d10 k3, PS) | 31% | –
CCTCTAAGTTAGCCCC (sugars k3 d10 k3, PS) | 97% | –
CCTGCTGAAACTTGAT (sugars k3 d10 k3, PS) | 19% | –
CCTGTGTTAGCTTTAA (sugars k3 d10 k3, PS) | 67% | –
CCTGTGTTAGCTTTAA (sugars kkdddddddddkekek, PS) | 62% | –
CCTGUGTTAGCTTTAA (sugars k3 d1 m1 d8 k3, PS) | 28% | –
CCTTATGTTATCTCAA (sugars k3 d10 k3, PS) | 67% | –
CCTTTAGTTAGAATAG (sugars k3 d10 k3, PS) | 37% | –
CCTTTGTATTTCGCTA (sugars k3 d10 k3, PS) | 47% | –
CCTTTTAACTACCCTC (sugars k3 d10 k3, PS) | 22% | –
CGAATTATTTCTTGCG (sugars k3 d10 k3, PS) | 58% | –
CGATCCTATATACATC (sugars k3 d1 m1 d8 k3, PS) | 28% | –
CGATCCTATATACATC (sugars k3 d9 k3 e1, PS) | 29% | –
CGATCCTATATACATC (sugars k3 d10 k3, PS) | 33% | –
CGATGTGGCCATGATT (sugars k3 d10 k3, PS) | 44% | –
CGATTGTTACATCACC (sugars k3 d10 k3, PS) | 47% | –
CGCCTAAAGGAGATCT (sugars k3 d10 k3, PS) | 59% | –
